Laboratory results published in patent US10647680B2, “Urea compound, preparation method therefor and medical use thereof” (Ancureall Pharmaceutical (Shanghai) Co., Ltd., priority 2016, dated 2020).

Tests used:
SK-BR-3 (HER2/ErbB2 amp) = assay: In vitro growth inhibition (GI50), SK-BR-3; type: cell-based; conditions: Homo sapiens, SK-BR3, HER2/ErbB2 amp+
Excerpt: (§1) Tumor cell line is an effective cell model for studying the inhibition of tumor cell growth or proliferation in vitro. In the present invention, a representative tumor cell line was selected to determine the cell growth inhibition activity of the present compound. All cell lines used were from ATCC, DSMZ, and the Cell Bank of the Chinese Academy of Sciences. Cell culture conditions and methods were in accordance with the requirements of each cell line. Cells were subcultured in vitro for no more than 3 passages each time, and as required, single-clone purification and identification of cell lines could be carried out.
(§2) The cell culture media used were RPMI1640 (Gibco), MEM (Gibco), McCOY'S5A (Gibco), and IMDM (Gibco). The complete medium was prepared by supplement with 5˜20% fetal calf serum (Gibco), 1% double-antibiotics (10000 units/mL penicillin and 10000 units/mL), 2 mM glutamine or 1 mM sodium pyruvate, respectively.
Human gastric cancer cell line NCI-N87 (HER2/ErbB2 amp, ATCC), human breast cancer cell line HCC1954 (HER2/ErbB2 amp, ATCC) and ZR-75-30 (HER2/ErbB2 amp, ATCC), human adenocarcinoma cell line AU565 (HER2/ErbB2 amp, ATCC), human lung squamous cell carcinoma cell line NCI-H2170 (HER2/ErbB2 amp, ATCC), human bronchioalveolar adenocarcinoma cell line NCI-H1781 (HER2/ErbB2 Ins G776V,C mutant type, ATCC) were cultured with a 1×RPMI1640 complete medium (10% FBS), respectively. Human lung adenocarcinoma cell line Calu-3 (HER2/ErbB2 amp, ATCC) was cultured with 1×MEM, 10% FBS, 1% double antibody, 1% NEAA (Gibco), 2 mM glutamine and 1 mM sodium pyruvate. The human breast cancer cell line SK-BR-3 (HER2/ErbB2 amp, ATCC) was cultured with a McCOY'S5A complete medium (10% FBS).
(§3) Adherent cells were digested with 0.25% pancreatin-EDTA (Gibco). The suspension cells were collected by centrifugation. The supernatant was discarded and the cell pellet was resuspended and counted. Different cell concentrations (5˜10×10^4 cells/mL) were prepared according to the growth cycle of each cell line and then seeded on a 96-well plate (Corning), 100 μL/well. The cells were incubated overnight at 37° C., 5% CO2. The compounds were added to the cells on the second day with 2 wells in parallel. The final concentration of organic solvent shall not exceed 1%. The cells were continually incubated for 3 to 5 days, and then subjected to MTT assay.
(§4) The compound of the present invention and the control compound were dissolved in DMSO (Sigma) respectively, with the purity of more than 98%. The compound was stored in a concentration of 10 mM at −20° C. and diluted to 2- or 10-fold series prior to use.
(§5) Dojindo CCK8 reagent kit was used as MTT assay. THERMO […] FC meter was used as microplate reader.
(§6) For adherent cells, culture medium was removed and immediately replaced with the fresh prepared medium which contains 10% CCK8 reagent (100 μL/well). For the suspension cells, CCK8 was directly added to 10% of the final concentration. The cells were continually incubated for 1˜4 h. When a dark yellow color could be observed in the solvent control wells, the absorbance value at OD450 nm was measured and the cell growth rate was calculated according to the following formula: Cell Growth Rate (%)=100*(T−T0)/(C−T0) T=optical density of drug treatment cell well—optical density of blank control well; T0=optical density of cell well before drug treatment—optical density of blank control well; C=optical density of cell well of solvent control group—optical density of blank control well. The concentration value of 50% inhibition of cell growth (GI50) was calculated according to the drug concentration and cell growth rate curve. The experiment was independently repeated 1˜3 times, and subject to biological statistical analysis. 4. Experimental Results
Tumor cell growth inhibition test was performed by selecting representative compounds (compounds 4, 11, 12, 16, 27, 68, 71, 77, 79, 89 and 116 of the present invention). […]

[1] = test system: NCI-H2228 (expressing EML4-ALK fusion gene); assay: In vitro growth inhibition (GI50), NCI-H2228; type: cell-based; conditions: Homo sapiens
Excerpt: as §1, §2
Human non-small cell lung cancer cell line NCI-H2228 (expressing EML4-ALK fusion gene, ATCC) and human anaplastic large cell lymphoma cell line Karpas-299 (expressing NPM-ALK fusion gene, ATCC) were cultured in complete medium comprising 1×RPMI1640 (10% FBS), respectively. Neuroblastoma cell line SH-SY5Y (expressing ALK F1174L mutant protein, Shanghai Cell Bank, Chinese Academy of Sciences) was cultured in MEM complete medium (1×MEM, 10% FBS, 1% NEAA, 1 mM sodium pyruvate).
as §3, §4, §5, §6
Tumor cell growth inhibition test was performed by selecting representative compounds (compounds 4, 11, 12, 16, 27, 68, 71, 77, 79, 89 and 116 of the present invention). The initial concentration of the compound was 5,000 nM, then it was serially diluted by 2-fold or 10-fold to 0.01 nM. The GI50 value of each test compound was calculated according to the GI50 assay and calculation method. The experiments were repeated 1 to 3 times, and data were subjected to biological statistical analysis.

Compound	GI50 (SK-BR-3 (HER2/ErbB2 amp)) [nM]	GI50 [1] [nM]
CC(C)(C)c1cc(NC(=O)Nc2ccc(-n3cnc4cc(OCCN5CCOCC5)ccc43)cc2)no1 [Compound 16, 1-(5-tert-butyl-isoxazol-3-yl)-3-{4-[5-(2-morpholin-4-yl-ethoxyl)-benzimidazol-1-yl]-phenyl}-urea]	> 2500	> 2500
CC(C)(C)c1cc(N)n(C(=O)Nc2ccc(-n3cnc4ccccc43)cc2)n1 [Compound 116, 5-amino-3-tert-butyl-pyrazol-1-carboxylic acid (4-benzimidazol-1-yl-phenyl)-amide]	> 2500	> 2500
CC(C)(C)c1cc(NC(=O)Nc2ccc(-n3cnc4cc(OCCO)ccc43)cc2)[nH]n1 [Compound 79, 1-(5-tert-butyl-2H-pyrazol-3-yl)-3-{4-[5-(2-hydroxy-ethoxyl)-benzimidazol-1-yl]-phenyl]urea]	> 2500	> 2500
CC(C)(C)c1cc(NC(=O)Nc2ccc(-n3cnc4cc(OCCN5CCOCC5)ccc43)cc2)[nH]n1 [Compound 89, 1-(5-tert-butyl-2H-pyrazol-3-yl)-3-{4-[5-(2-morpholin-4-yl-ethoxyl)-benzimidazol-1-yl]-phenyl}-urea]	> 2500	> 2500
COCCOc1ccc2c(c1)ncn2-c1ccc(NC(=O)Nc2cc(C(C)(C)C)n[nH]2)cc1 [Compound 77, 1-(5-tert-butyl-2H-pyrazol-3-yl)-3-{4-[5-(2-methoxyl-ethoxyl)-benzimidazol-1-yl]-phenyl}-urea]	> 2500	> 2500
COc1ccc2c(c1)ncn2-c1ccc(NC(=O)Nc2cc(C(C)(C)C)n[nH]2)cc1 [Compound 71, 1-(5-tert-butyl-2H-pyrazol-3-yl)-3-[4-(5-methoxyl-benzimidazol-1-yl)-phenyl]-urea]	> 2500	> 2500
CC(C)(C)c1cc(NC(=O)Nc2ccc(-n3cnc4ccccc43)cc2)[nH]n1 [Compound 68, 1-(4-benzimidazol-1-yl-phenyl)-3-(5-tert-butyl-2H-pyrazol-3-yl)-urea]	> 2500	> 2500
CC(C)(C)c1cc(NC(=O)Nc2ccc(-n3cnc4ccc(OCCN5CCOCC5)cc43)cc2)no1 [Compound 27, 1-(5-tert-butyl-isoxazol-3-yl)-3-{4-[6-(2morpholin-4-yl-ethoxyl)-benzimidazol-1-yl]-phenyl}-urea]	> 2500	> 2500
CC(C)(C)c1cc(NC(=O)Nc2ccc(-n3cnc4cc(O)ccc43)cc2)no1 [Compound 4, 1-(5-tert-butyl-isoxazol-3-yl)-3-[4-(5-hydroxy-benzimidazol-1-yl)-phenyl]-urea]	> 2500	> 2500
CC(C)(C)c1cc(NC(=O)Nc2ccc(-n3cnc4cc(OCCO)ccc43)cc2)no1 [Compound 11, 1-(5-tert-butyl-isoxazol-3-yl)-3-{4-[5-(2-hydroxy-ethoxyl)-benzimidazol-1-yl]-phenyl]-urea]	> 2500	> 2500
